One data set has as its target T1, COX-2 (Mus musculus, UniProt Q05769).
T1 construct: host or cells: RAW 264.7 cells, pre-treated with aspirin, then induced with interferon and LPS
T1 sequence (Q05769 18-604): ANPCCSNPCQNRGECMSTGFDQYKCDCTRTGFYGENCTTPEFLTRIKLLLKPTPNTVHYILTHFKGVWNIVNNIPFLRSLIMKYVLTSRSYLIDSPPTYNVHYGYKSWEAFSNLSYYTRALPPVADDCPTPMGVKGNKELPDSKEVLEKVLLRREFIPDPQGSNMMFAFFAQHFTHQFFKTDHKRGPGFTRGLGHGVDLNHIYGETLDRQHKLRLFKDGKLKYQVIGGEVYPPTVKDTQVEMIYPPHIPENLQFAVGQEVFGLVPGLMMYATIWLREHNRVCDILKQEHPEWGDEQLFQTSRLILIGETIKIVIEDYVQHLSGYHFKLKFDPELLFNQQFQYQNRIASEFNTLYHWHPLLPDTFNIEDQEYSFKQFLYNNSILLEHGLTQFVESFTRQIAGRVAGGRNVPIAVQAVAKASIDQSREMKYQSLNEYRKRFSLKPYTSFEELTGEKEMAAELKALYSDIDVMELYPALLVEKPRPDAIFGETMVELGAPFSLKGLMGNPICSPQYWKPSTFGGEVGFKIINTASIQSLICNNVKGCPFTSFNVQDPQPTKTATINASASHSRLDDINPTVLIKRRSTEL
As to the kind of experiment: Assay for the COX-2 inhibitory activity using Raw 264.7 cell line (PGE2 inhibition). Format: cell-based. As to conditions: test compound 30 nM, RAW 264.7 cells, aspirin pre-treated, interferon + LPS 18 hours, PGE2 by EIA; for inhibition at 0.03 µM: RAW264.7, read-out: Cyclooxygenase (COX) Inhibition (%) COX-2 (30 nM). As for the experimental part:
Each well was treated with 250 μM of aspirin and incubated at 37° C. for 2 hours. After the culture media were replaced with new culture media, the new culture media were treated with a test compound (30 nM) and incubated for 30 minutes. Then, each well was treated with interferon ? (100 units/ml) and lipopolysaccharide (LPS, 100 ng/ml) and incubated for 18 hours. The culture media were transferred to other test tubes. The concentration of PGE2 was quantified by means of the EIA kit (Cayman Chemicals).
(§1) The percentages of the COX inhibition were calculated according to the following equation: % Inhibition=(concentration of PGE2 in test compound-untreated sample−concentration of PGE2 in test compound-treated sample)/(concentration of PGE2 in test compound-untreated sample)×100

In a further data set the target is T2, COX-1 (Homo sapiens, UniProt P23219).
T2 construct: host or cells: U-937 human lymphoma cells
Kind of data set: Assay for the COX-1 inhibitory activity using U-937 (PGE2 inhibition). Type of data set: cell-based. The note with it: test compound 1 μM, U-937 human lymphoma cells, arachidonic acid substrate, PGE2 quantified; for inhibition at 1 µM: read-out: Cyclooxygenase (COX) Inhibition (%) COX-1 (1 μM). As for the experimental part: The collected cells were diluted with HBSS (×1, Hank's balanced salt solution) to a concentration of 1×10^6 cells/ml. 1 ml of the dilute cell solution was placed into each well of 12-well plates. 5 μl of 1 μM solution of a test compound in DMSO and 5 μl of DMSO as a control were added to the wells. The wells were incubated in CO2 incubator at 37° C. for 15 minutes. Separately, 10 mM stock solution of arachidonic acid in ethanol was diluted ten times in ethanol to prepare 1 mM solution of arachidonic acid. Arachidonic acid acts as a substrate. 10 μl of the 1 mM solution of arachidonic acid was added to each well and incubated at CO2 incubator at 37° C. for 30 minutes. The cell solution of each well was placed in a centrifuge test tube and centrifuged at 10,000 rpm at 4° C. for 5 minutes. The concentration of PGE2 in the collected cells and the supernatant was quantified by means of a monoclonal kit (Cayman Chemicals). The percentages of PGE2 inhibition in a group of the test compound-treated cells in relation to a group of the DMSO-treated cells were calculated. Based on the calculated values, the COX-1 inhibitory activities were evaluated.
as §1

The structures appear in SMILES notation.

What is called inhibition is the percentage by which the read-out fell short of the control. A word on the melting point: it is the temperature of the solid-liquid transition.

T2 sequence (P23219 24-599): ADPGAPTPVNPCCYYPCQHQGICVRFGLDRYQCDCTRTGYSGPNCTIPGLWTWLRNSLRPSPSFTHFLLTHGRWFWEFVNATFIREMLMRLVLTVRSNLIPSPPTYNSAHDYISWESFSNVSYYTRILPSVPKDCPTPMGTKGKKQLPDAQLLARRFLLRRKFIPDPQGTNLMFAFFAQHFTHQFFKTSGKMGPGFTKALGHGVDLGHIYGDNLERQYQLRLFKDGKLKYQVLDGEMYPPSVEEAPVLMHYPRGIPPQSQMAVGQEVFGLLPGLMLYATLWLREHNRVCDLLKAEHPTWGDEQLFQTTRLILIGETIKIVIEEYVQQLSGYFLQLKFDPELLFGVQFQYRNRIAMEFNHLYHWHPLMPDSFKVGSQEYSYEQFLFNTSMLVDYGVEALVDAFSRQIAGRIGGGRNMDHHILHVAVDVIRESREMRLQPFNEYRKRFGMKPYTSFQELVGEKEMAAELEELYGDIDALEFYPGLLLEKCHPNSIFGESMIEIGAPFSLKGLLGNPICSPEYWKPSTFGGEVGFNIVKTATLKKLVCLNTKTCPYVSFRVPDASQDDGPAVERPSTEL

With `CCOc1ccc(-c2c(-c3ccc(S(C)(=O)=O)cc3Cl)ssc2=S)cc1` [Example 70, 5-(2-chloro-4-methanesulfonylphenyl)-4-(4-ethoxyphenyl)-[1,2]dithiol-3-thione], the melting point was in the range of 190 to 191 °C. Moreover, on COX-2, the inhibition at 0.03 µM was 36%. For the same compound, the inhibition at 1 µM on COX-1 was found to be 17.5%.
As to `CS(=O)(=O)c1ccc(-c2ssc(=S)c2-c2ccccc2F)cc1` [Example 62, 4-(2-fluorophenyl)-5-(4-methanesulfonylphenyl)-[1,2]dithiol-3-thione], the melting point was 173 to 174 °C. In addition, the inhibition at 0.03 µM at COX-2 turned out to be 21%. Besides, the inhibition at 1 µM at COX-1 turned out to be 26.6%.
Consider `CS(=O)(=O)c1ccc(-c2ssc(=S)c2-c2ccc(Cl)cc2Cl)cc1` [Example 58, 4-(2,4-dichlorophenyl)-5-(4-methanesulfonylphenyl)-[1,2]dithiol-3-thione], for which the melting point fell in the range of 176 to 177 °C. For the same compound, on COX-2, the inhibition at 0.03 µM was determined as 20.1%. In addition, the inhibition at 1 µM at COX-1 worked out at 24.2%.
On to `Cc1ccccc1-c1c(-c2ccc(S(C)(=O)=O)cc2)ssc1=S` [Example 56, 5-(4-methanesulfonylphenyl)-4-o-toryl-[1,2]dithiol-3-thione], for which, on COX-2, the “Cyclooxygenase (COX) Inhibition (%) COX-2 (30 nM)” value is on record as 25.6%. Besides, the “Cyclooxygenase (COX) Inhibition (%) COX-1 (1 μM)” value on COX-1 was 20.6%.
On to `COc1ccc(OC)c(-c2c(-c3ccc(S(C)(=O)=O)cc3)ssc2=S)c1` [Example 51, 4-(2,5-dimethoxyphenyl)-5-(4-methanesulfonylphenyl)-[1,2]dithiol-3-thione], for which the melting point was 176 to 177 °C. For the same compound, the inhibition at 0.03 µM on COX-2 worked out at 19.8%. Also, the inhibition at 1 µM on COX-1 turned out to be 27.6%.
For the compound `CS(=O)(=O)c1ccc(-c2ssc(=S)c2-c2ccc(F)cc2)cc1` [Example 50, 4-(4-fluorophenyl)-5-(4-methanesulfonylphenyl)-[1,2]dithiol-3-thione], the melting point fell in the range of 195 to 197 °C. Also, on COX-2, the inhibition at 0.03 µM stood at 19.6%. Moreover, the inhibition at 1 µM at COX-1 is 27.2%.
Consider `CC(=O)Oc1ccc(-c2c(-c3ccc(F)c(F)c3)ssc2=S)cc1` [Example 76, Acetic acid 4-[5-(3,4-difluorophenyl)-3-thioxo-3H-[1,2]dithiol-4-yl]-phenyl ester], for which the melting point was 147 to 149 °C. Further, the inhibition at 0.03 µM at COX-2 was determined as 20.3%. Further, the inhibition at 1 µM at COX-1 is 21.6%.
For the compound `CS(=O)(=O)c1ccc(-c2ssc(=S)c2-c2ccc3ccccc3c2)cc1` [Example 65, 5-(4-methanesulfonylphenyl)-4-(naphthalene-2-yl)-[1,2]dithiol-3-thione], the inhibition at 0.03 µM on COX-2 is 20.1%. On COX-1, the inhibition at 1 µM came out at 22.6%.
As to `CS(=O)(=O)c1ccc(-c2ssc(=S)c2-c2ccc(F)cc2Cl)cc1` [Example 59, 4-(2-chloro-4-fluorophenyl)-5-(4-methanesulfonylphenyl)-[1,2]dithiol-3-thione], the melting point fell in the range of 184 to 185 °C. For the same compound, the inhibition at 0.03 µM at COX-2 turned out to be 19.7%. Also, the inhibition at 1 µM at COX-1 came out at 23.2%.
The compound `CS(=O)(=O)c1ccc(-c2ssc(=S)c2-c2ccccc2Cl)cc1` [Example 57, 4-(2-chlorophenyl)-5-(4-methanesulfonylphenyl)-[1,2]dithiol-3-thione] gave a melting point of 161 to 162 °C. For the same compound, at COX-2, the inhibition at 0.03 µM stood at 21.1%. The inhibition at 1 µM at COX-1 was 20.7%.
As for `CS(=O)(=O)c1ccc(-c2[nH][nH]c(=S)c2-c2ccc(Cl)cc2)cc1` [Example 82, 4-(4-chlorophenyl)-5-(4-methanesulfonylphenyl)-1,2-dihydropyrazole-3-thione], the melting point lay within 211 to 213 °C. Also, on COX-2, the inhibition at 0.03 µM amounted to 22.2%. The inhibition at 1 µM at COX-1 came to 24.3%.
For `COc1ccc(-c2c(-c3ccc(S(C)(=O)=O)cc3)ssc2=S)cc1` [Example 43, 5-(4-methanesulfonylphenyl)-4-(4-methoxyphenyl)-[1,2]dithiol-3-thione], the melting point is 220 to 222 °C. On COX-2, the inhibition at 0.03 µM was found to be 38.4%. Further, the inhibition at 1 µM at COX-1 turned out to be 19.3%.
For `Cc1ccc(-c2c(-c3ccc(S(C)(=O)=O)cc3Cl)ssc2=S)cc1` [Example 71, 5-(2-chloro-4-methanesulfonylphenyl)-4-p-toryl-[1,2]dithiol-3-thione], the “Cyclooxygenase (COX) Inhibition (%) COX-2 (30 nM)” value at COX-2 came out at 21.0%. The “Cyclooxygenase (COX) Inhibition (%) COX-1 (1 μM)” value on COX-1 is given as 20.3%.
In the case of `CS(=O)(=O)c1ccc(-c2ssc(=S)c2-c2ccncc2)cc1` [Example 47, 5-(4-methanesulfonylphenyl)-4-(pyridine-4-yl)-[1,2]dithiol-3-thione], the melting point was in the range of 245 to 247 °C. In addition, at COX-2, the inhibition at 0.03 µM is 21.4%. The inhibition at 1 µM at COX-1 came out at 22.5%.
Consider `CS(=O)(=O)c1ccc(-c2ssc(=S)c2-c2ccccn2)cc1` [Example 49, 5-(4-methanesulfonylphenyl)-4-(pyridine-2-yl)-[1,2]dithiol-3-thione], for which, at COX-2, the inhibition at 0.03 µM worked out at 19.5%. On COX-1, the inhibition at 1 µM was 28%.
As to `CC(C)Oc1ccc(-c2c(-c3ccc(S(C)(=O)=O)cc3)ssc2=S)cc1` [Example 67, 4-(4-isopropoxylphenyl)-5-(4-methanesulfonylphenyl)-[1,2]dithiol-3-thione], the melting point fell in the range of 179 to 180 °C. At COX-2, the inhibition at 0.03 µM turned out to be 23.3%. Also, the inhibition at 1 µM on COX-1 was determined as 27.5%.
In the case of `CS(=O)(=O)c1ccc(-c2ssc(=S)c2-c2c(F)c(F)c(F)c(F)c2F)cc1` [Example 66, 5-(4-methanesulfonylphenyl)-4-pentafluorophenyl-[1,2]dithiol-3-thione], the “Cyclooxygenase (COX) Inhibition (%) COX-2 (30 nM)” value at COX-2 stood at 19.2%. The “Cyclooxygenase (COX) Inhibition (%) COX-1 (1 μM)” value on COX-1 stood at 28.2%.
Turning to `CS(=O)(=O)c1ccc(-c2ssc(=S)c2-c2cccnc2)cc1` [Example 48, 5-(4-methanesulfonylphenyl)-4-(pyridine-3-yl)-[1,2]dithiol-3-thione], at COX-2, the inhibition at 0.03 µM came to 24.2%. The inhibition at 1 µM at COX-1 is 23.6%.
For `COc1ccc(-c2c(-c3ccc(S(C)(=O)=O)c(F)c3)ssc2=S)cc1` [Example 78, 5-(3-fluoro-4-methanesulfonylphenyl)-4-(4-methoxyphenyl)-[1,2]dithiol-3-thione] the same measures were 32.5% and 18.5%.
As for `Cc1ccc(-c2c(-c3ccc(S(C)(=O)=O)c(F)c3)ssc2=S)cc1` [Example 77, 5-(3-fluoro-4-methanesulfonylphenyl)-4-p-toryl-[1,2]dithiol-3-thione], the “Cyclooxygenase (COX) Inhibition (%) COX-2 (30 nM)” value at COX-2 was determined as 31.5%. In addition, the “Cyclooxygenase (COX) Inhibition (%) COX-1 (1 μM)” value at COX-1 is 15.2%.
On to `CS(=O)(=O)c1ccc(-c2ssc(=S)c2-c2ccc(Cl)c(Cl)c2)cc1` [Example 46, 4-(3,4-dichlorophenyl)-5-(4-methanesulfonylphenyl)-[1,2]dithiol-3-thione], for which the inhibition at 0.03 µM at COX-2 was determined as 21%. In addition, the inhibition at 1 µM at COX-1 is 24.6%.
`Cc1ccc(-c2c(-c3ccc(S(C)(=O)=O)cc3)ssc2=S)cc1` [Example 41, 5-(4-methanesulfonylphenyl)-4-p-toryl-[1,2]dithiol-3-thione]: at COX-2, the “Cyclooxygenase (COX) Inhibition (%) COX-2 (30 nM)” value is 24.5%. Further, the “Cyclooxygenase (COX) Inhibition (%) COX-1 (1 μM)” value at COX-1 is 20.1%.
`Cc1ccc(-c2c(-c3ccc(S(C)(=O)=O)cc3)[nH][nH]c2=S)cc1` [Example 80, 5-(4-methanesulfonylphenyl)-4-p-toryl-[1,2]dihydropyrazole-3-thione]: the “Cyclooxygenase (COX) Inhibition (%) COX-2 (30 nM)” value on COX-2 worked out at 23.2%. Besides, the “Cyclooxygenase (COX) Inhibition (%) COX-1 (1 μM)” value on COX-1 stood at 25.6%.
